# Patent publication US20190343908A1, “Therapeutic Combination for the Treatment of Cancer” (Nerium Biotechnology Inc., priority 2011, published 2019)
# Key:
# [1] = system: MDA-MB 231 (human breast cancer); experiment: Methyl-Tetrazolium viability assay, MDA-MB 231; type: cell-based; conditions: for MTT 24 h / MTT 48 h / MTT 72 h: Run 3 average
# Description: (§1) Three different viability assays were chosen to complement each other and yielded results dependent on concentration and cell line: the Methyl Tetrazolium dye assay, the Sulforhodamine B fluorescent dye assay, and the Crystal Violet dye assay.
# The Methyl-Tetrazolium dye assay measures the activity of enzymes in mitochondria. The dye precursor is taken up by cells, where it undergoes reduction to the purple formazan. It measures only the mitochondrial activity and, thus, it is not always a reliable indication of whether the cells themselves are alive or dead, since even a recently dead cell has […] enzyme activity in mitochondria. Intracellular glucose concentration, pH, and time before assay all affect the measurements.
# (§2) The Methyl Tetrazolium, Sulforhodamine B, and Crystal Violet assays were used to assess cell viabilities. The incubation times were 24 hours, 48 hours, and 72 hours. The Nerium oleander extract Anvirzel™ (a hot water extract of oleander obtained from Salud Integral, Honduras) was tested in concentrations ranging from 0.01 ng/mL to 10 ng/mL.
# (§3) Cells were detached by trypsinization (Trypsin-0.25% EDTA, Invitrogen, 25200-072) during the logarithmic phase of culture growth and plated in 96-well plates (18.000 cells/well) (Corning, Costar 359) in a final volume of 200 μl of medium per well. […] The absorbance was measured after 24 hours, 48 hours, and 72 hours of incubation.
# For the Methyl-Tetrazolium assay, the dye (Sigma, M2128; 5 mg/mL, diluted in phosphate-buffered saline) was added to each well and plates were incubated for 3 hours at 37° C. After the end of the incubation period, the medium was discarded and the cells were rinsed with phosphate-buffered saline. Finally, the formazan crystals were dissolved in dimethylsulphoxide (Sigma, D4540).
# (§4) The optical density of each plate was measured on a μQuant spectrophotometer and the data were analyzed with Gen5 software (μQuant Biomolecular Spectrophotometer MQX200 and Gen5™ Microplate Data Collection & Analysis software, BioTek® Instruments. Inc, April 2008). Absorbance was measured at 570 nm for all assays and a second wavelength was measured in order to subtract noise. For the Methyl-Tetrazolium assay this second wavelength was 630 nm and for the Sulforhodamine B and Crystal Violet assays it was 690 nm.
# [2] = system: T47D (human breast cancer); experiment: Crystal Violet viability assay, T47D; type: cell-based; parameters: key: absorbance at 570 nm (crystal violet), background wavelength subtracted
# Description: as §1
# The Sulforhodamine B and Crystal Violet assays provide information about protein and were used to complement the Methyl-Tetrazolium dye assay. […] It is used for the quantification of cellular proteins of cultured cells. The assay using Crystal Violet, a dye that binds electrostatically to proteins and stains DNA, provides a reliable, simple assay for measuring viability of cells.
# as §2, §3
# For the Crystal Violet assay, the medium was removed from the 96-well plates, the plates rinsed with PBS (Sigma, P3813) and then the cells were […] by the addition of 10% formalin (MERCK, 1.04003.2500) for 20 minutes at RT. Formalin was removed and 0.25% aqueous crystal violet (Sigma, HT901), dissolved in water, was added for 10 minutes at RT. Unbound Crystal Violet was rinsed by washing with water and finally 33% acetic acid was added to dissolve the dye.
# as §4
smiles,measurement,setting,value
N.N.[Cl][Pt][Cl] [cisplatin],MTT 24 h Average,"[1]; Run 1, 0.1 μg/ml CDDP",0.019
same,MTT 48 h Average,"[1]; Run 1, 0.1 μg/ml CDDP",0.002
same,MTT 72 h Average,"[1]; Run 1, 0.1 μg/ml CDDP",0.04
same,MTT 24 h Average,"[1]; Run 1, 1 μg/ml CDDP",0.007
same,MTT 48 h Average,"[1]; Run 1, 1 μg/ml CDDP",0.004
same,MTT 72 h Average,"[1]; Run 1, 1 μg/ml CDDP",0.006
same,MTT 24 h Average,"[1]; Run 1, 10 μg/ml CDDP",0.015
same,MTT 48 h Average,"[1]; Run 1, 10 μg/ml CDDP",0.007
same,MTT 72 h Average,"[1]; Run 1, 10 μg/ml CDDP",0.015
same,MTT 24 h Average,"[1]; Run 1, 100 μg/ml CDDP",0.008
same,MTT 48 h Average,"[1]; Run 1, 100 μg/ml CDDP",0.008
same,MTT 72 h Average,"[1]; Run 1, 100 μg/ml CDDP",0.006
same,MTT 24 h Average,"[1]; Run 2, 0.1 μg/ml CDDP",0.044
same,MTT 48 h Average,"[1]; Run 2, 0.1 μg/ml CDDP",0.063
same,MTT 72 h Average,"[1]; Run 2, 0.1 μg/ml CDDP",0.106
same,MTT 24 h Average,"[1]; Run 2, 1 μg/ml CDDP",0.009
same,MTT 48 h Average,"[1]; Run 2, 1 μg/ml CDDP",0.007
same,MTT 72 h Average,"[1]; Run 2, 1 μg/ml CDDP",0.005
same,MTT 24 h Average,"[1]; Run 2, 10 μg/ml CDDP",0.039
same,MTT 48 h Average,"[1]; Run 2, 10 μg/ml CDDP",0.049
same,MTT 72 h Average,"[1]; Run 2, 10 μg/ml CDDP",0.07
same,MTT 24 h Average,"[1]; Run 2, 100 μg/ml CDDP",0.008
same,MTT 48 h Average,"[1]; Run 2, 100 μg/ml CDDP",0.006
same,MTT 72 h Average,"[1]; Run 2, 100 μg/ml CDDP",0.002
same,MTT 24 h,[1]; 0.1 μg/ml CDDP,0.083
same,MTT 48 h,[1]; 0.1 μg/ml CDDP,0.035
same,MTT 72 h,[1]; 0.1 μg/ml CDDP,0.046
same,MTT 24 h,[1]; 1 μg/ml CDDP,0.013
same,MTT 48 h,[1]; 1 μg/ml CDDP,0.008
same,MTT 72 h,[1]; 1 μg/ml CDDP,0.008
same,MTT 24 h,[1]; 10 μg/ml CDDP,0.046
same,MTT 48 h,[1]; 10 μg/ml CDDP,0.057
same,MTT 72 h,[1]; 10 μg/ml CDDP,0.068
same,MTT 24 h,[1]; 100 μg/ml CDDP,0.012
same,MTT 48 h,[1]; 100 μg/ml CDDP,0.012
same,MTT 72 h,[1]; 100 μg/ml CDDP,0.01
same,CVE Average,"[2]; T47D Run 1, 24 h, 0.1 μg/ml CDDP",0.64
same,CVE Average,"[2]; T47D Run 1, 24 h, 10 μg/ml CDDP",0.417
same,CVE Average,"[2]; T47D Run 1, 48 h, 0.1 μg/ml CDDP",0.67
same,CVE Average,"[2]; T47D Run 1, 48 h, 1 μg/ml CDDP",0.369
same,CVE Average,"[2]; T47D Run 1, 48 h, 10 μg/ml CDDP",0.518
same,CVE Average,"[2]; T47D Run 1, 48 h, 100 μg/ml CDDP",0.319
same,CVE Average,"[2]; T47D Run 1, 72 h, 0.1 μg/ml CDDP",0.654
same,CVE Average,"[2]; T47D Run 1, 72 h, 1 μg/ml CDDP",0.347
same,CVE Average,"[2]; T47D Run 1, 72 h, 10 μg/ml CDDP",0.34
same,CVE Average,"[2]; T47D Run 1, 72 h, 100 μg/ml CDDP",0.293
same,CVE Average,"[2]; T47D Run 2, 24 h, 1 μg/ml CDDP",0.385
same,CVE Average,"[2]; T47D Run 2, 24 h, 10 μg/ml CDDP",0.597
same,CVE Average,"[2]; T47D Run 2, 24 h, 100 μg/ml CDDP",0.317
same,CVE Average,"[2]; T47D Run 2, 48 h, 0.1 μg/ml CDDP",0.45
same,CVE Average,"[2]; T47D Run 2, 48 h, 1 μg/ml CDDP",0.223
same,CVE Average,"[2]; T47D Run 2, 48 h, 10 μg/ml CDDP",0.315
same,CVE Average,"[2]; T47D Run 2, 72 h, 0.1 μg/ml CDDP",1.124
same,CVE Average,"[2]; T47D Run 2, 72 h, 1 μg/ml CDDP",0.33
same,CVE Average,"[2]; T47D Run 2, 72 h, 10 μg/ml CDDP",0.334
same,CVE Average,"[2]; T47D Run 2, 72 h, 100 μg/ml CDDP",0.381
same,CVE Average,"[2]; T47D Run 3, 24 h, 1 μg/ml CDDP",0.4
same,CVE Average,"[2]; T47D Run 3, 24 h, 10 μg/ml CDDP",0.488
same,CVE Average,"[2]; T47D Run 3, 24 h, 100 μg/ml CDDP",0.385
same,CVE Average,"[2]; T47D Run 3, 48 h, 0.1 μg/ml CDDP",0.778
same,CVE Average,"[2]; T47D Run 3, 48 h, 1 μg/ml CDDP",0.435
same,CVE Average,"[2]; T47D Run 3, 48 h, 100 μg/ml CDDP",0.544
same,CVE Average,"[2]; T47D Run 3, 72 h, 0.1 μg/ml CDDP",0.722
same,CVE Average,"[2]; T47D Run 3, 72 h, 1 μg/ml CDDP",0.223
same,CVE Average,"[2]; T47D Run 3, 72 h, 10 μg/ml CDDP",0.31
same,CVE Average,"[2]; T47D Run 3, 72 h, 100 μg/ml CDDP",0.22
